Drawing on patent US20240024494A1, “SMALL-MOLECULE CONJUGATE AND USE THEREOF” (SHANGHAI MEWSGEN BIOTECHNOLOGY CO., LTD, priority 2020, published 2024), this text covers IC50 for one compound.

SMILES strings stand for the structures.

For experiment [1], the system named is SHG44 (human glioma cells). It counts as cell-based. The conditions noted are these: 72 h. The source says: (§1) A part of the compounds of the examples of the present disclosure were subjected to a tumor cell proliferation inhibition test by using an MTT method (e.g. Pharmacological Research Method of New Drug, 2007: 242-243, edited by Lu Qiujun).
(§2) A cell strain was selected from KYSE-150 (human esophageal squamous carcinoma cells), MGC803 (human gastric carcinoma cells), and SHG44 (human glioma cells), and frozen and passaged by a pharmacological laboratory of Shanghai Institute of Pharmaceutical Industry. A culture solution was DMEM+10% FBS+double antibody.
(§3) In-vitro activity test: 100 μL of a cell suspension at a concentration of 4-5×10^4/mL was added to each well of a 96-well plate, and placed in a 5% CO2 incubator at 37° C. After 24 h, a sample solution was added at 10 μL/well, double duplicate wells were set, and a reaction was performed at 37° C. with 5% CO2 for 72 h. 20 μL of 5 mg/ml of an MTT solution was added into each well and reacted for 4 h, a dissolving solution was added at 100 μL/well, the mixture was placed in an incubator, and after dissolution, an OD value at 570 nm was measured with a full-wavelength multifunctional microplate reader. An inhibition rate (IR) and a median inhibitory concentration (IC50) were calculated by using an Excel software.
(§4) The inhibition rate (IR %) of the drug on cell growth was calculated according to the following equation: […]

For experiment [2], the system named is MGC803 (human gastric carcinoma cells). It counts as cell-based. Conditions: 72 h.
Text: as §1, §2, §3, §4

What is called IC50 is the concentration needed to halve the response being measured. `COc1cc(C(=O)NCCOCCOCCOCCOCCC(=O)N[C@@H](C(=O)N[C@@H](CCCNC(N)=O)C(=O)Nc2ccc(COC(=O)N3CCN(C(=O)O[C@H]4CC[C@@]5(C)[C@H](CC[C@@H]6[C@@H]5[C@H](O)C(=O)[C@]5(C)[C@@H](c7ccc(=O)oc7)CC[C@]65O)C4)CC3)cc2)C(C)C)ccc1NC(=O)[C@@H]1N[C@@H](CC(C)(C)C)[C@](C#N)(c2ccc(Cl)cc2F)[C@H]1c1cccc(Cl)c1F` [Compound I-1]: the figures for the IC50 in experiment [1] and in experiment [2] were 3 nM and 9 nM, respectively.
